ChEMBL document CHEMBL1208676, “Synthesis and in vitro antimycobacterial activity of balofloxacin ethylene isatin derivatives” (Eur J Med Chem, 2010)
Values after ≈ are worked out from the molar mass of the structure shown.

Assays:
[1] = system: Mycolicibacterium phlei; assay: Antimycobacterial activity against Mycobacterium phlei CMCC 93201 after 72 hrs by serial double dilution method; type: functional; conditions: CMCC 93201, 72 h
[2] = system: Mycolicibacterium smegmatis; assay: Antimycobacterial activity against Mycobacterium smegmatis CMCC 93202 after 72 hrs by serial double dilution method; type: functional; conditions: CMCC 93202, 72 h
[3] = system: Mycobacterium tuberculosis; assay: Antimycobacterial activity against Mycobacterium tuberculosis 09710 after 72 hrs by serial double dilution method; type: functional; conditions: Mycobacterium tuberculosis, 09710, 72 h
[4] = system: Mycobacterium tuberculosis; assay: Antimycobacterial activity against Mycobacterium tuberculosis H37Rv ATCC 27294 after 72 hrs by serial double dilution method; type: functional; conditions: H37Rv ATCC 27294, 72 h
[5] = Cytotoxicity against african green monkey Vero cells after 72 hrs by MTT assay; type: cell-based; conditions: chlorocebus sabaeus
[6] = Lipophilicity, log P of the compound; type: physicochemical; conditions: octanol/water

Structure (SMILES) | MIC [1] | MIC [2] | MIC [3] | MIC [4] | CC50 at 72 h [5] | logP [6]
COc1c(N2C[C@@H]3CCCN[C@@H]3C2)c(F)cc2c(=O)c(C(=O)O)cn(C3CC3)c12 [MOXIFLOXACIN] | 0.2 µg/mL (≈ 0.498 µM) | 0.1 µg/mL (≈ 0.249 µM) | < 0.5 µg/mL | 0.25 µg/mL (≈ 0.623 µM) | – | –
CCO/N=C1/C(=O)N(CCN(C)C2CCCN(c3c(F)cc4c(=O)c(C(=O)O)cn(C5CC5)c4c3OC)C2)c2ccc(F)cc21 (centres undefined) | 3.12 µg/mL (≈ 5 µM) | 6.25 µg/mL (≈ 10 µM) | – | – | 53.1 µM | 1.29
COc1c(N2CCCC(N(C)CCN3C(=O)/C(=N\Nc4ccccc4)c4ccccc43)C2)c(F)cc2c(=O)c(C(=O)O)cn(C3CC3)c12 (centres undefined) | 3.12 µg/mL (≈ 4.78 µM) | 6.25 µg/mL (≈ 9.58 µM) | – | – | < 6.1 µM | –
CCO/N=C1/C(=O)N(CCN(C)C2CCCN(c3c(F)cc4c(=O)c(C(=O)O)cn(C5CC5)c4c3OC)C2)c2ccccc21 (centres undefined) | 3.12 µg/mL (≈ 5.15 µM) | 6.25 µg/mL (≈ 10.3 µM) | – | – | 60.5 µM | 0.96
COc1c(N2CCCC(N(C)CCN3C(=O)/C(=N\NC(N)=S)c4cc(F)ccc43)C2)c(F)cc2c(=O)c(C(=O)O)cn(C3CC3)c12 (centres undefined) | 3.12 µg/mL (≈ 4.77 µM) | 6.25 µg/mL (≈ 9.56 µM) | – | – | 313 µM | 1.8
COc1c(N2CCCC(N(C)CCN3C(=O)C(=O)c4cc(F)ccc43)C2)c(F)cc2c(=O)c(C(=O)O)cn(C3CC3)c12 (centres undefined) | 25 µg/mL (≈ 43.1 µM) | 12.5 µg/mL (≈ 21.5 µM) | 64 µg/mL (≈ 110 µM) | – | 96.2 µM | –
COc1c(N2CCCC(N(C)CCN3C(=O)/C(=N\Nc4ccccc4)c4cc(F)ccc43)C2)c(F)cc2c(=O)c(C(=O)O)cn(C3CC3)c12 (centres undefined) | 3.12 µg/mL (≈ 4.65 µM) | 6.25 µg/mL (≈ 9.32 µM) | – | – | < 6 µM | –
CNC1CCCN(c2c(F)cc3c(=O)c(C(=O)O)cn(C4CC4)c3c2OC)C1 (centres undefined) [BALOFLOXACIN] | 0.78 µg/mL (≈ 2 µM) | 0.39 µg/mL (≈ 1 µM) | 16 µg/mL (≈ 41.1 µM) | 8 µg/mL (≈ 20.5 µM) | 317 µM | -1.11
CO/N=C1/C(=O)N(CCN(C)C2CCCN(c3c(F)cc4c(=O)c(C(=O)O)cn(C5CC5)c4c3OC)C2)c2ccccc21 (centres undefined) | 3.12 µg/mL (≈ 5.27 µM) | 6.25 µg/mL (≈ 10.6 µM) | – | – | 15 µM | –
COc1c(N2CCCC(N(C)CCN3C(=O)/C(=N\NC(N)=O)c4ccccc43)C2)c(F)cc2c(=O)c(C(=O)O)cn(C3CC3)c12 (centres undefined) | 12.5 µg/mL (≈ 20.2 µM) | 12.5 µg/mL (≈ 20.2 µM) | – | – | 56.1 µM | –
COc1c(N2CCCC(N(C)CCN3C(=O)/C(=N\NC(N)=S)c4ccccc43)C2)c(F)cc2c(=O)c(C(=O)O)cn(C3CC3)c12 (centres undefined) | 3.12 µg/mL (≈ 4.91 µM) | 6.25 µg/mL (≈ 9.83 µM) | – | – | 294 µM | 1.4
CO/N=C1/C(=O)N(CCN(C)C2CCCN(c3c(F)cc4c(=O)c(C(=O)O)cn(C5CC5)c4c3OC)C2)c2ccc(F)cc21 (centres undefined) | 3.12 µg/mL (≈ 5.12 µM) | 6.25 µg/mL (≈ 10.3 µM) | – | – | 12.8 µM | –
COc1c(N2CCCC(N(C)CCN3C(=O)C(=O)c4ccccc43)C2)c(F)cc2c(=O)c(C(=O)O)cn(C3CC3)c12 (centres undefined) | 25 µg/mL (≈ 44.4 µM) | 25 µg/mL (≈ 44.4 µM) | – | – | 137 µM | –
COc1c(N2CCCC(N(C)CCN3C(=O)/C(=N/O)c4cc(F)ccc43)C2)c(F)cc2c(=O)c(C(=O)O)cn(C3CC3)c12 (centres undefined) | 6.25 µg/mL (≈ 10.5 µM) | 12.5 µg/mL (≈ 21 µM) | – | – | 306 µM | –
COc1c(N2CCCC(N(C)CCN3C(=O)/C(=N\NC(N)=O)c4cc(F)ccc43)C2)c(F)cc2c(=O)c(C(=O)O)cn(C3CC3)c12 (centres undefined) | 6.25 µg/mL (≈ 9.8 µM) | 6.25 µg/mL (≈ 9.8 µM) | – | – | 57 µM | –
